Experimental data taken from ChEMBL document CHEMBL1275276, “Analysis of physico-chemical properties of substrates of ABC and MFS multidrug transporters of pathogenic Candida albicans” (2010).
Activity calls are given as the source filed them. How the calls were made is not given here.

Experiments:
Saccharomyces cerevisiae [1] = test: Antifungal activity against yeast AD1-8u expressing Candida albicans CaCdr1p by agar disk diffusion assay; assay type: functional
Candida albicans [2] = test: Binding affinity to Candida albicans CaCdr1p expressed in yeast AD1-8u
Candida albicans [3] = test: Binding affinity to Candida albicans CaMdr1p expressed in yeast AD1-8u
Saccharomyces cerevisiae [4] = test: Antifungal activity against yeast AD1-8u expressing Candida albicans CaMdr1p by agar disk diffusion assay; assay type: functional; further: test concentration or dose not given here
Wherever IZ is given: test concentration or dose not given here.

Structure (SMILES) | inhibition zone (IZ) (Saccharomyces cerevisiae [1]) | Activity (Candida albicans [2]) | Activity (Candida albicans [3]) | inhibition zone (IZ) (Saccharomyces cerevisiae [4])
CCCCCCCCCCCCCC(=O)OCCN(C)C | 0 cm | inactive | inactive | 0 cm
Nc1nc(=O)[nH]cc1F [FLUCYTOSINE] | 0 cm | inactive | inactive | 0 cm
COc1cc2c(c(OC)c1OC)-c1ccc(OC)c(=O)cc1[C@@H](NC(C)=O)CC2 [COLCHICINE] | 0 cm | inactive | inactive | 0 cm
C[C@@H]1C[C@@H]([C@H](O)CC2CC(=O)NC(=O)C2)C(=O)[C@@H](C)C1 [CYCLOHEXIMIDE] | 1.2 cm | Active | Active | 0.8 cm
CCC(C)n1ncn(-c2ccc(N3CCN(c4ccc(OCC5COC(Cn6cncn6)(c6ccc(Cl)cc6Cl)O5)cc4)CC3)cc2)c1=O (stereo unspecified) [ITRACONAZOLE] | 1.1 cm | Active | inactive | 0 cm
O=[N+]([O-])c1cc[n+]([O-])c2ccccc12 [4-NITROQUINOLINE-1-OXIDE] | 0.3 cm | Active | Active | 0.4 cm
CC(=O)O[C@H]1C(=O)[C@@]2(C)[C@H]([C@H](OC(=O)c3ccccc3)[C@]3(O)C[C@H](OC(=O)[C@H](O)[C@@H](NC(=O)c4ccccc4)c4ccccc4)C(C)=C1C3(C)C)[C@]1(OC(C)=O)CO[C@@H]1C[C@@H]2O [PACLITAXEL] | 0 cm | inactive | inactive | 0 cm
CCC(=O)Nc1ccc(Cl)c(Cl)c1 [PROPANIL] | 0.3 cm | Active | Active | 0.9 cm
CC[C@@]1(O)C(=O)OCc2c1cc1n(c2=O)Cc2cc3c(CN(C)C)c(O)ccc3nc2-1 [TOPOTECAN] | 0.5 cm | Active | inactive | 0.2 cm
